# US8952024B2, “Herbicidal pyrimidone derivatives” (E I du Pont de Nemours and Company, priority 2009, dated 2015)
# Legend:
# Assay type in all cases: in vivo
# [1] = test system: barnyardgrass (Echinochloa crus-galli); test: Test E flooded paddy rice and weeds; details: applied to paddy water, 21 days
# Description: (§1) Three plastic pots (ca. 16-cm diameter) for each application were partially filled with sterilized Tama silt loam soil comprising a 35:50:15 ratio of sand, silt and clay and 2.6% organic matter. Separate plantings for each of the three pots were as follows. Seeds from the U.S. of ducksalad (Heteranthera limosa), sedge (smallflower umbrella sedge, Cyperus difformis), ricefield bulrush (Scirpus mucronatus) and redstem (purple redstem, Ammannia coccinea), were planted into one 16-cm pot for each rate. Seeds from the U.S. of flatsedge (rice flatsedge, Cyperus iria), sprangletop (bearded (i.e. Brdd.) sprangletop, Leptochloa fascicularis), one stand of 9 or 10 water seeded rice seedlings (Oryza sativa cv. ‘Japonica—M202’), and two stands of 3 or 4 transplanted rice seedlings (Oryza sativa cv. ‘Japonica—M202’) were planted into one 16-cm pot for each rate. Seeds from the U.S. of barnyardgrass (Echinochloa crus-galli), late watergrass (Echinochloa oryzicola), early watergrass (Echinochloa oryzoides) and junglerice (Echinochloa colona) were planted into one 16-cm pot for each rate. Plantings were sequential so that crop and weed species were at the 2.0 to 2.5-leaf stage at time of treatment.
# (§2) Potted plants were grown in a greenhouse with day/night temperature settings of 30/27° C., and supplemental balanced lighting was provided to maintain a 16-hour photoperiod. Test pots were maintained in the greenhouse until test completion.
# (§3) At time of treatment, test pots were flooded to 3 cm above the soil surface, treated by application of test compounds directly to the paddy water, and then maintained at that water depth for the duration of the test. Effects of treatments on rice and weeds were visually evaluated by comparison to untreated controls after 21 days. Plant response ratings, summarized in Table E, are based on a scale of 0 to 100 where 0 is no effect and 100 is complete control. A dash (-) response means no test result.
# [2] = test system: ducksalad (Heteranthera limosa); test: Test E flooded paddy rice and weeds; details: applied to paddy water, 21 days, scale 0 to 100
# Description: as §1, §2, §3
# [3] = test system: early watergrass (Echinochloa oryzoides); test: Test E flooded paddy rice and weeds; details: applied to paddy water, 21 days, scale 0 to 100
# Description: as §1, §2, §3
# [4] = test system: flatsedge (rice flatsedge, Cyperus iria); test: Test E flooded paddy rice and weeds; details: applied to paddy water, 21 days, scale 0 to 100
# Description: as §1, §2, §3
# [5] = test system: junglerice (Echinochloa colona); test: Test E flooded paddy rice and weeds; details: applied to paddy water, 21 days, scale 0 to 100
# Description: as §1, §2, §3
# [6] = test system: late watergrass (Echinochloa oryzicola); test: Test E flooded paddy rice and weeds; details: applied to paddy water, 21 days, scale 0 to 100
# Description: as §1, §2, §3
# [7] = test system: redstem (purple redstem, Ammannia coccinea); test: Test E flooded paddy rice and weeds; details: applied to paddy water, 21 days, scale 0 to 100
# Description: as §1, §2, §3
# [8] = test system: ricefield bulrush (Scirpus mucronatus); test: Test E flooded paddy rice and weeds; details: applied to paddy water, 21 days, scale 0 to 100
# Description: as §1, §2, §3
# [9] = test system: sedge (smallflower umbrella sedge, Cyperus difformis); test: Test E flooded paddy rice and weeds; details: applied to paddy water, 21 days, scale 0 to 100
# Description: as §1, §2, §3
# [10] = test system: sprangletop (bearded (i.e. Brdd.) sprangletop, Leptochloa fascicularis); test: Test E flooded paddy rice and weeds; details: applied to paddy water, 21 days, scale 0 to 100
# Description: as §1, §2, §3
# [11] = test system: transplanted rice seedlings (Oryza sativa cv. ‘Japonica—M202’); test: Test E flooded paddy rice and weeds; details: applied to paddy water, 21 days, scale 0 to 100
# Description: as §1, §2, §3
# [12] = test system: water seeded rice seedlings (Oryza sativa cv. ‘Japonica—M202’); test: Test E flooded paddy rice and weeds; details: applied to paddy water, 21 days, scale 0 to 100
# Description: as §1, §2, §3
# [13] = test system: Russian thistle (Salsola iberica); test: Test F combination of compound 2 with bromoxynil, postemergence; details: 15 days, mean of three replicates, scale 0 to 100
# Description: Test F evaluated the effect of combining compound 2 with bromoxynil. The test species for this experiment was Russian thistle (Salsola iberica), which was prepared by sowing seeds into a blend of loam soil and sand. Test chemicals were formulated in a non-phytotoxic solvent mixture that included a surfactant and applied postemergence to plants ranging in height from 12 to 20 cm. […] Treatments consisted of Compound 2, bromoxynil, or their combination, using a spray volume of 457 L/ha. Each treatment was replicated three times. Treated plants and untreated controls were maintained in a greenhouse for 15 days, after which time all plants were visually evaluated and compared to the untreated controls. […] Colby's Equation was used to determine the herbicidal effects expected from the mixtures. Colby's Equation (Colby, S.
# [14] = test system: canarygrass (Phalaris minor); test: Test C plant response; details: Preemergence, scale 0 to 100
# [15] = test system: field poppy (Papaver rhoeas); test: Test C plant response; details: Preemergence, scale 0 to 100
# [16] = test system: pigweed (Amaranthus retroflexus); test: Test C plant response; details: Preemergence, scale 0 to 100
# [17] = test system: spring wheat (Triticum aestivum); test: Test C plant response; details: Preemergence, scale 0 to 100
# [18] = test system: winter wheat (Triticum aestivum); test: Test C plant response; details: Preemergence, scale 0 to 100
structure (smiles),measurement,setting,value
COc1cccc(-n2c(-c3ccccc3)ncc(C(=O)C3=C(O)CCCC3=O)c2=O)c1 [Compound 19],"Plant response rating, Barnyardgrass, Flood","[1]; 64 g ai/ha, scale 0 to 100",60
same,"Plant response rating, Barnyardgrass, Flood","[1]; 125 g ai/ha, scale 0 to 100",60
same,"Plant response rating, Barnyardgrass, Flood","[1]; 250 g ai/ha, scale 0 to 100",70
same,"Plant response rating, Barnyardgrass, Flood","[1]; 500 g ai/ha, scale 0 to 100 (0 no effect, 100 complete control)",85
same,"Plant response rating, Ducksalad, Flood",[2]; 64 g ai/ha,85
same,"Plant response rating, Ducksalad, Flood",[2]; 125 g ai/ha,95
same,"Plant response rating, Ducksalad, Flood",[2]; 250 g ai/ha,100
same,"Plant response rating, Ducksalad, Flood",[2]; 500 g ai/ha,100
same,"Plant response rating, Watergrass, Early, Flood",[3]; 64 g ai/ha,20
same,"Plant response rating, Watergrass, Early, Flood",[3]; 125 g ai/ha,45
same,"Plant response rating, Watergrass, Early, Flood",[3]; 250 g ai/ha,65
same,"Plant response rating, Watergrass, Early, Flood",[3]; 500 g ai/ha,85
same,"Plant response rating, Flatsedge, Rice, Flood",[4]; 64 g ai/ha,40
same,"Plant response rating, Flatsedge, Rice, Flood",[4]; 125 g ai/ha,40
same,"Plant response rating, Flatsedge, Rice, Flood",[4]; 250 g ai/ha,95
same,"Plant response rating, Flatsedge, Rice, Flood",[4]; 500 g ai/ha,100
same,"Plant response rating, Junglerice, Flood",[5]; 64 g ai/ha,0
same,"Plant response rating, Junglerice, Flood",[5]; 125 g ai/ha,50
same,"Plant response rating, Junglerice, Flood",[5]; 250 g ai/ha,65
same,"Plant response rating, Junglerice, Flood",[5]; 500 g ai/ha,80
same,"Plant response rating, Watergrass, Late, Flood",[6]; 64 g ai/ha,0
same,"Plant response rating, Watergrass, Late, Flood",[6]; 125 g ai/ha,45
same,"Plant response rating, Watergrass, Late, Flood",[6]; 250 g ai/ha,60
same,"Plant response rating, Watergrass, Late, Flood",[6]; 500 g ai/ha,55
same,"Plant response rating, Redstem, Flood",[7]; 64 g ai/ha,0
same,"Plant response rating, Redstem, Flood",[7]; 125 g ai/ha,90
same,"Plant response rating, Redstem, Flood",[7]; 250 g ai/ha,90
same,"Plant response rating, Redstem, Flood",[7]; 500 g ai/ha,85
same,"Plant response rating, Bulrush, Ricefield, Flood",[8]; 64 g ai/ha,50
same,"Plant response rating, Bulrush, Ricefield, Flood",[8]; 125 g ai/ha,70
same,"Plant response rating, Bulrush, Ricefield, Flood",[8]; 250 g ai/ha,70
same,"Plant response rating, Bulrush, Ricefield, Flood",[8]; 500 g ai/ha,75
same,"Plant response rating, Sedge, Umbrella, Flood",[9]; 64 g ai/ha,90
same,"Plant response rating, Sedge, Umbrella, Flood",[9]; 125 g ai/ha,100
same,"Plant response rating, Sedge, Umbrella, Flood",[9]; 250 g ai/ha,100
same,"Plant response rating, Sedge, Umbrella, Flood",[9]; 500 g ai/ha,100
same,"Plant response rating, Sprangletop, Brdd., Flood",[10]; 64 g ai/ha,75
same,"Plant response rating, Sprangletop, Brdd., Flood",[10]; 125 g ai/ha,95
same,"Plant response rating, Sprangletop, Brdd., Flood",[10]; 250 g ai/ha,100
same,"Plant response rating, Sprangletop, Brdd., Flood",[10]; 500 g ai/ha,100
same,"Plant response rating, Rice, Transplanted, Flood",[11]; 64 g ai/ha,0
same,"Plant response rating, Rice, Transplanted, Flood",[11]; 125 g ai/ha,35
same,"Plant response rating, Rice, Transplanted, Flood",[11]; 250 g ai/ha,40
same,"Plant response rating, Rice, Transplanted, Flood",[11]; 500 g ai/ha,65
same,"Plant response rating, Rice, Water Seeded, Flood",[12]; 64 g ai/ha,0
same,"Plant response rating, Rice, Water Seeded, Flood",[12]; 125 g ai/ha,40
same,"Plant response rating, Rice, Water Seeded, Flood",[12]; 250 g ai/ha,70
same,"Plant response rating, Rice, Water Seeded, Flood",[12]; 500 g ai/ha,95
"O=C1CCCC(O)=C1C(=O)c1cnc(-c2ccccc2)n(-c2ccccc2)c1=O [Compound 2, 5-[(2-hydroxy-6-oxo-1-cyclohexen-1-yl)carbonyl]-2,3-diphenyl-4(3H)-pyrimidinone]",Russian Thistle Obsd. (observed effect),[13]; Cmpd 2 62 g a.i./ha alone,42
same,Russian Thistle Obsd. (observed effect),[13]; Cmpd 2 125 g a.i./ha alone,52
same,Plant response rating: Canarygrass,[14]; 62 g ai/ha,0
same,Plant response rating: Canarygrass,[14]; 125 g ai/ha,10
same,Plant response rating: Canarygrass,[14]; 16 g ai/ha,0
same,Plant response rating: Canarygrass,[14]; 31 g ai/ha,0
same,Plant response rating: Field Poppy,[15]; 62 g ai/ha,95
same,Plant response rating: Field Poppy,[15]; 125 g ai/ha,100
same,Plant response rating: Field Poppy,[15]; 31 g ai/ha,75
same,Plant response rating: Pigweed,[16]; 62 g ai/ha,65
same,Plant response rating: Pigweed,[16]; 125 g ai/ha,85
same,Plant response rating: Pigweed,[16]; 16 g ai/ha,0
same,Plant response rating: Pigweed,[16]; 31 g ai/ha,20
same,"Plant response rating: Wheat, Spring",[17]; 62 g ai/ha,0
same,"Plant response rating: Wheat, Spring",[17]; 125 g ai/ha,0
same,"Plant response rating: Wheat, Spring",[17]; 16 g ai/ha,0
same,"Plant response rating: Wheat, Spring",[17]; 31 g ai/ha,0
same,"Plant response rating: Wheat, Winter",[18]; 62 g ai/ha,0
same,"Plant response rating: Wheat, Winter",[18]; 125 g ai/ha,0
same,"Plant response rating: Wheat, Winter",[18]; 16 g ai/ha,0
same,"Plant response rating: Wheat, Winter",[18]; 31 g ai/ha,0
